Results published in patent publication US12110276B2 (Genentech, Inc., priority 2021, dated 2024).

Experiments:
TEAD1 = TEAD1 (Homo sapiens (Human), UniProt P28347); assay: TR-FRET lipid pocket probe competition assay (Lipid HTRF), TEAD1; assay type: binding; conditions: 4 hours pre-incubation; read-out: Lipid HTRF TEAD1 IC50;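 also: His-tagged TEAD1 with biotinylated probe, detected via Europium anti-His and XL665 streptavidin, probe displacement lowers TR-FRET signal, IC50 from four-parameter nonlinear fit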
Procedure: (§1) His-tagged TEAD proteins are pre-incubated with TEAD project compounds for 30 minutes or 4 hours at room temperature. Biotinylated lipid pocket probes are then added to the TEAD/Compound mixture and incubated for 60 minutes at room temperature. The lipid pocket probe competes with the test compound for the TEAD lipid pocket until equilibrium is reached. After 60 minutes, Europium labelled anti-His (Perkin Elmer #AD0110) and XL665 labelled streptavidin (CIS Bio 610SAXAC) are added to the TEAD/test compound/lipid pocket mixture and incubated for 30 minutes or 4 hours. […] If a TEAD lipid pocket binder such as binds and displaces the lipid pocket probe, the disruption of the TEAD:probe interaction results in a decrease in TR-FRET signal. The potency of compounds as TEAD lipid pocket binders is determined by IC50 value generated using a non-linear 4 parameter curve fit.

TEAD3 = TEAD3 (Homo sapiens (Human), UniProt Q99594); assay: TR-FRET lipid pocket probe competition assay (Lipid HTRF), TEAD3; assay type: binding; conditions: 4 hours pre-incubation; read-out: Lipid HTRF TEAD3 IC50
Procedure: as §1

TEAD4 = TEAD4 (Homo sapiens (Human), UniProt Q15561); assay: TR-FRET lipid pocket probe competition assay (Lipid HTRF), TEAD4; assay type: binding; conditions: 4 hours pre-incubation; read-out: Lipid HTRF TEAD4 IC50;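 also: His-tagged TEAD4 with biotinylated lipid-pocket probe, read by Europium anti-His and XL665 streptavidin, where probe displacement lowers the TR-FRET signal, IC50 from a four-parameter fit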
Procedure: as §1

TEAD2 = TEAD2 (Homo sapiens (Human), UniProt Q15562);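 also: TR-FRET competition assay with His-tagged TEAD protein and a biotinylated lipid pocket probe, compound pre-incubated 30 min or 4 h at room temperature, displacement lowers signal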
Sequence of TEAD2 (Q15562 whole entry, species assumed): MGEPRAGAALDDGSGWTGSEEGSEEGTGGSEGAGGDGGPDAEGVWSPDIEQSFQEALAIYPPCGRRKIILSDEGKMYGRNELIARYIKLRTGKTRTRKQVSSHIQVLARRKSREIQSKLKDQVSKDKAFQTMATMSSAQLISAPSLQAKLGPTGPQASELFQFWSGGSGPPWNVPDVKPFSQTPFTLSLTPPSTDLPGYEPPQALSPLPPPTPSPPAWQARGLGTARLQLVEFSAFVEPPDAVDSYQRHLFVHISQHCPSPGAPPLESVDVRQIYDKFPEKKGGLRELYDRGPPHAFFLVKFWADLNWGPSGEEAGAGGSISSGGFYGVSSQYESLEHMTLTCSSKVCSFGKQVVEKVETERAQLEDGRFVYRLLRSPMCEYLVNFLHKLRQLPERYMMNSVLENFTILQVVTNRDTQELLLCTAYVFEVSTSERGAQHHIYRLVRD

Sequence of TEAD4 (Q15561 whole entry, species assumed): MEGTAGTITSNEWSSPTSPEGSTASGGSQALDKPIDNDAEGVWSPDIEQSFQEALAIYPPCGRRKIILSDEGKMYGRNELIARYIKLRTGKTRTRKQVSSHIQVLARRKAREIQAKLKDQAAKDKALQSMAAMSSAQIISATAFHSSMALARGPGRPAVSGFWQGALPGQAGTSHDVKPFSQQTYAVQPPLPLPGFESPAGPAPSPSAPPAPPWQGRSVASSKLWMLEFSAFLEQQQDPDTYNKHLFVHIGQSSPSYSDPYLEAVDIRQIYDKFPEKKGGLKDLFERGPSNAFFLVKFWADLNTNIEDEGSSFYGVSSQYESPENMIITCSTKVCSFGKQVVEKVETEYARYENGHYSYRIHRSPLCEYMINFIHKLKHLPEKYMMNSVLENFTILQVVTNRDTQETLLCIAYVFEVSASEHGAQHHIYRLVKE
Sequence of TEAD3 (Q99594 whole entry, species assumed): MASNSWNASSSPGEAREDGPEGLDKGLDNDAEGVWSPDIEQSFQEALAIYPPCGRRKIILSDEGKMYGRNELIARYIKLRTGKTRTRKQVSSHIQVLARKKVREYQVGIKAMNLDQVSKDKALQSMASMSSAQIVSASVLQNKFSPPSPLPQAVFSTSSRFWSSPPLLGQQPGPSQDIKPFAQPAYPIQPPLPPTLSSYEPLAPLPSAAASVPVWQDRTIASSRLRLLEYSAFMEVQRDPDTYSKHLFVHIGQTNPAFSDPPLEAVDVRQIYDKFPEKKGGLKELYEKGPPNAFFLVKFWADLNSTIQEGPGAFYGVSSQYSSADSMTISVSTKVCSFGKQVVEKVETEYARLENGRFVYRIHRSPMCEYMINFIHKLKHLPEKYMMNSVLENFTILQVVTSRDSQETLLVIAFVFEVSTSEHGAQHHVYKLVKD
Sequence of TEAD1 (P28347 whole entry, species assumed): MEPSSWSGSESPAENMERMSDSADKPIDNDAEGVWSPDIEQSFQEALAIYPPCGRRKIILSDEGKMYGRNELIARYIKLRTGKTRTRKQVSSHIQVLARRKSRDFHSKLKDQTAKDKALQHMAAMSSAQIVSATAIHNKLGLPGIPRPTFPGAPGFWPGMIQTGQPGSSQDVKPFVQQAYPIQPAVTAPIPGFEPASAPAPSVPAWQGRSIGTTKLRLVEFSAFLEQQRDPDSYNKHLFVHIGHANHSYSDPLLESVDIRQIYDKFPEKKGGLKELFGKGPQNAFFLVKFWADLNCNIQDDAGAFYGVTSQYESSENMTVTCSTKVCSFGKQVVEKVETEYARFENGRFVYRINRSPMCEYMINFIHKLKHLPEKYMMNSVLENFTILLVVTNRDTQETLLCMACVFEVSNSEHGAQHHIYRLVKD

IC50 (TEAD1) [nM]	IC50 (TEAD3) [nM]	IC50 (TEAD4) [nM]	IC50 (TEAD2) [nM]	Structure (SMILES)
44	41000	28.5	66	C=CC(=O)NCc1nn(-c2ccc(OC(F)(F)F)cc2)c2nccc(N3CCC(O)CC3)c12 [Compound 91, N-((4-(4-hydroxypiperidin-1-yl)-1-(4-(trifluoromethoxy)phenyl)-1H-pyrazolo[3,4-b]pyridin-3-yl)methyl)acrylamide]
110	13000	52	780	C=CC(=O)NCc1nn(-c2ccc(OC(F)(F)F)cc2)c2nccc(N3CC(N)C3)c12 [Compound 92, N-((4-(3-aminoazetidin-1-yl)-1-(4-(trifluoromethoxy)phenyl)-1H-pyrazolo[3,4-b]pyridin-3-yl)methyl)acrylamide]
170	570	22	710	C=CC(=O)N(C)Cc1nn(-c2ccc(OC(F)(F)F)cc2)c2nccc([C@@H](O)CO)c12 [Compound 93, (R)-N-((4-(1,2-dihydroxyethyl)-1-(4-(trifluoromethoxy)phenyl)-1H-pyrazolo[3,4-b]pyridin-3-yl)methyl)-N-methylacrylamide]
10	38	3.7	30	Cc1ccnc2c1c(C1CN(C(=O)/C=C/CO)C1)nn2-c1ccc(OC(F)(F)F)cc1 [Compound 96, (E)-4-Hydroxy-1-(3-(4-methyl-1-(4-(trifluoromethoxy)phenyl)-1H-pyrazolo[3,4-b]pyridin-3-yl)azetidin-1-yl)but-2-en-1-one]
78	570	58	520	C[C@H](O)/C=C/C(=O)N1CC(c2nn(-c3ccc(OC(F)(F)F)cc3)c3nccc(CO)c23)C1 [Compound 97, (S,E)-4-hydroxy-1-(3-(4-(hydroxymethyl)-1-(4-(trifluoromethoxy)phenyl)-1H-pyrazolo[3,4-b]pyridin-3-yl)azetidin-1-yl)pent-2-en-1-one]
3.3	87	5	28	O=C(/C=C\Cl)NCc1nn(-c2ccc(OC(F)(F)F)cc2)c2nccc(CO)c12 [Compound 99, (Z)-3-Chloro-N-((4-(hydroxymethyl)-1-(4-(trifluoromethoxy)phenyl)-1H-pyrazolo[3,4-b]pyridin-3-yl)methyl)acrylamide]
10	8.8	3.3	3.5	O=C(/C=C/Cl)N1CC(c2nn(-c3ccc(OC(F)(F)F)cc3)c3nccc(CO)c23)C1 [Compound 102, (E)-3-Chloro-1-(3-(4-(hydroxymethyl)-1-(4-(trifluoromethoxy)phenyl)-1H-pyrazolo[3,4-b]pyridin-3-yl)azetidin-1-yl)prop-2-en-1-one]
180	50000	82.5	3350	O=C(/C=C/CO)N1CC(c2nn(-c3ccc(OC(F)(F)F)cc3)c3ccnc(N4CC(O)C4)c23)C1 [Compound 103, (E)-4-hydroxy-1-(3-(4-(3-hydroxyazetidin-1-yl)-1-(4-(trifluoromethoxy)phenyl)-1H-pyrazolo[4,3-c]pyridin-3-yl)azetidin-1-yl)but-2-en-1-one]
1000	50000	450	620	C=CC(=O)NCc1nn(-c2ccc(OC(F)(F)F)cc2)c2nccc(CN(C)C)c12 [Compound 105, N-((4-((dimethylamino)methyl)-1-(4-(trifluoromethoxy)phenyl)-1H-pyrazolo[3,4-b]pyridin-3-yl)methyl)acrylamide]
15.5	935	6.75	61	C=CC(=O)NCc1nn(-c2ccc(OC(F)(F)F)cc2)c2nccc(N3CC(O)C3)c12 [Compound 106, N-((4-(3-hydroxyazetidin-1-yl)-1-(4-(trifluoromethoxy)phenyl)-1H-pyrazolo[3,4-b]pyridin-3-yl)methyl)acrylamide]
280	50000	36	960	C=CC(=O)NCc1nn(-c2ccc(OC(F)(F)F)cc2)c2nccc(N3CC(N(C)C)C3)c12 [Compound 107, N-((4-(3-(dimethylamino)azetidin-1-yl)-1-(4-(trifluoromethoxy)phenyl)-1H-pyrazolo[3,4-b]pyridin-3-yl)methyl)acrylamide]
23	18	5.15	7.8	C=C(Cl)C(=O)N1CC(c2nn(-c3ccc(OC(F)(F)F)cc3)c3nccc([C@H](O)CO)c23)C1 [Compound 109, (S)-2-Chloro-1-(3-(4-(1,2-dihydroxyethyl)-1-(4-(trifluoromethoxy)phenyl)-1H-pyrazolo[3,4-b]pyridin-3-yl)azetidin-1-yl)prop-2-en-1-one]
19	17	4.3	8	C=C(Cl)C(=O)N1CC(c2nn(-c3ccc(OC(F)(F)F)cc3)c3nccc([C@@H](O)CO)c23)C1 [Compound 110, (R)-2-chloro-1-(3-(4-(1,2-dihydroxyethyl)-1-(4-(trifluoromethoxy)phenyl)-1H-pyrazolo[3,4-b]pyridin-3-yl)azetidin-1-yl)prop-2-en-1-one]
19	20	4.5	6.5	C=CC(=O)N1CC(c2nn(-c3ccc(OC(F)(F)F)cc3)c3nccc([C@H](O)CO)c23)C1 [Compound 113, (S)-1-(3-(4-(1,2-Dihydroxyethyl)-1-(4-(trifluoromethoxy)phenyl)-1H-pyrazolo[3,4-b]pyridin-3-yl)azetidin-1-yl)prop-2-en-1-one]
14	16	2.9	4.6	C=CC(=O)N1CC(c2nn(-c3ccc(OC(F)(F)F)cc3)c3nccc([C@@H](O)CO)c23)C1 [Compound 114, (R)-1-(3-(4-(1,2-Dihydroxyethyl)-1-(4-(trifluoromethoxy)phenyl)-1H-pyrazolo[3,4-b]pyridin-3-yl)azetidin-1-yl)prop-2-en-1-one]
27	14000	11	75	C=CC(=O)NCc1nn(-c2ccc(OC(F)(F)F)cc2)c2nccc(N3CC(NC(C)=O)C3)c12 [Compound 116, N-((4-(3-acetamidoazetidin-1-yl)-1-(4-(trifluoromethoxy)phenyl)-1H-pyrazolo[3,4-b]pyridin-3-yl)methyl)acrylamide]
16	50000	4.3	97	C=CC(=O)NCc1nn(-c2ccc(OC(F)(F)F)cc2)c2nccc(N3CC(OC)C3)c12 [Compound 118, N-((4-(3-methoxyazetidin-1-yl)-1-(4-(trifluoromethoxy)phenyl)-1H-pyrazolo[3,4-b]pyridin-3-yl)methyl)acrylamide]
160	550	110	250	C=CC(=O)NCc1nn(-c2ccc(OC(F)(F)F)cc2)c2nccc(-c3c[nH]cn3)c12 [Compound 119, N-((4-(1H-Imidazol-4-yl)-1-(4-(trifluoromethoxy)phenyl)-1H-pyrazolo[3,4-b]pyridin-3-yl)methyl)acrylamide]
27	270	55	160	C/C=C/C(=O)N1CC(c2nn(-c3ccc(OC(F)(F)F)cc3)c3nccc(CO)c23)C1 [Compound 120, (E)-1-(3-(4-(Hydroxymethyl)-1-(4-(trifluoromethoxy)phenyl)-1H-pyrazolo[3,4-b]pyridin-3-yl)azetidin-1-yl)but-2-en-1-one]
190	21000	39	2000	C=CC(=O)NCc1nn(-c2ccc(OC(F)(F)F)cc2)c2nccc(N3CC(NC)C3)c12 [Compound 122, N-((4-(3-(methylamino)azetidin-1-yl)-1-(4-(trifluoromethoxy)phenyl)-1H-pyrazolo[3,4-b]pyridin-3-yl)methyl)acrylamide]
41	930	9.9	200	C=CC(=O)NCc1nn(-c2ccc(OC(F)(F)F)cc2)c2nccc(N3CC(O)(CO)C3)c12 [Compound 124, N-((4-(3-hydroxy-3-(hydroxymethyl)azetidin-1-yl)-1-(4-(trifluoromethoxy)phenyl)-1H-pyrazolo[3,4-b]pyridin-3-yl)methyl)acrylamide]
800	1700	44	870	C=C(F)C(=O)N1CC(c2nn(-c3ccc(OC(F)(F)F)cc3)c3nccc(N4CC[C@@H](O)C4=O)c23)C1 [Compound 125, (R)-1-(3-(1-(2-fluoroacryloyl)azetidin-3-yl)-1-(4-(trifluoromethoxy)phenyl)-1H-pyrazolo[3,4-b]pyridin-4-yl)-3-hydroxypyrrolidin-2-one]
22	50000	4.4	120	C=CC(=O)NCc1nn(-c2ccc(OC(F)(F)F)cc2)c2nccc(OCCO)c12 [Compound 126, N-((4-(2-Hydroxyethoxy)-1-(4-(trifluoromethoxy)phenyl)-1H-pyrazolo[3,4-b]pyridin-3-yl)methyl)acrylamide]
7.9	13	3.3	17	O=C(/C=C/CO)N1CC(c2nn(-c3ccc(OC(F)(F)F)cc3)c3nccc(Cl)c23)C1 [Compound 127, (E)-1-(3-(4-Chloro-1-(4-(trifluoromethoxy)phenyl)-1H-pyrazolo[3,4-b]pyridin-3-yl)azetidin-1-yl)-4-hydroxybut-2-en-1-one]
6.5	72	3.6	12	O=C(C#CCO)NCc1nn(-c2ccc(OC(F)(F)F)cc2)c2nccc(CO)c12 [Compound 128, 4-Hydroxy-N-((4-(hydroxymethyl)-1-(4-(trifluoromethoxy)phenyl)-1H-pyrazolo[3,4-b]pyridin-3-yl)methyl)but-2-ynamide]
